The record followed here is article PMC12267067, “Targeting GRPR for sex hormone-dependent cancer after loss of E-cadherin” (Nature, 2025).

For test [1], the system named is YAP1 activation signature. Put plainly: YAP1 activation signature (GSEA) and Yap1 score by RNA-seq, murine melanoma cell lines. The format is cell-based, mouse. As to conditions: 4 h, 10 nM GRP. How it is done:
The transcriptome, copy-number alteration, mutations and corresponding clinical data of the TCGA–SKCM (n = 473), TCGA–BRCA (n = 1,215), TCGA–STAD (n = 450), TCGA–LUSC (n = 553) and TCGA–KIRC (n = 606) datasets were retrieved from the National Cancer Institute Genomic Data Commons repository using the TCGAbiolinks R package in August 2022 (ref. [51]). The mRNA levels were calculated from RNA-sequencing read counts using RNA-Seq V2 RSEM and normalized to TPM. Expression of CDH1, CCND1, BRAF and KRAS was modelled over time using LOWESS smoothing with 1,860 points. Expression levels from acral melanoma were retrieved from GEO under accession number GSE162682. Survival analyses were carried out by separating the cohort into two groups according to gene expression. The threshold was set to 1 TPM, commonly considered to be the limit for sufficient protein expression of the transcript. The negative group was set to an expression 0.1 TPM or less to have clear separation in terms of expression (factor 10) from the positive group. The YAP and melanoma phenotypic state scores were obtained by averaging the expression of detailed marker genes, or for the mice, from their murine orthologues as described in ref. [52]. The pigmentation state was defined by the expression of MITF, MLANA, TRPM1, DCT and TYR; the starved-like melanoma cell phenotype by the expression of CD36, DLX5, IP6K3, PAX3 and TRIM67; the invasive state by the expression of AXL, CYR61, TCF4, LOXL2, TNC and WNT5A; and the neural crest cell-like phenotypic state by the expression of AQP1, GFRA2, L1CAM, NGFR, SLC22A17 and TMEM176B[52]. The scoring of YAP1 activation was determined from the expression of CYR61, CTGF, TEAD4, LATS2 and CRIM1. Yap scoring was obtained by averaging the fold change of each Yap1 target. The anoikis-resistance score was calculated on the basis of the expression of S100A7A, MTPN, ATP10B, S100A8, RSAD2, RENBP, CDHR1 and CD36. The ER-activation score was calculated according to the expressions of GATA4, SDK2, EGR3, IL19, GSG1L, RSPO1, PGR, IL24 and PDZK1. Expression data from human and mouse normal tissue were downloaded from the Human Protein Atlas (https://www.proteinatlas.org/) and from the EBI expression atlas (https://www.ebi.ac.uk/gxa/home), respectively, both accessed on 7 October 2022. The anatogram was generated using the gganatogram R package.
RNA was extracted from cells and mouse tumours using the miRNeasy kit (Qiagen, 217004), according to the manufacturer’s protocol. RNA integrity (RIN) was measured using an Agilent Bioanalyser 2100 (Agilent Technologies) and an RNA nano 6000 kit (5067-1511, Agilent Technologies). Only RNA with an RNA integrity number (RIN) of more than 7 was used for analysis. This threshold led to the sequencing of 72 mouse melanoma cell lines, 36 human melanoma cell lines and 32 mouse tumours. RNA concentrations were measured using a NanoDrop (NanoDrop Technologies). […] The libraries were equimolarly pooled and subjected to qPCR quantification using the KAPA library quantification kit (Roche). Sequencing was carried out on a NovaSeq 6000 instrument (Illumina) based on a 2 × 100 cycle mode (paired-end reads, 100 bases) using an S1 flow cell to obtain approximately 35 million clusters (70 million raw paired-end reads) per sample. Reads were mapped to the mm10 mouse reference genome (gencode m13 version-GRCm38.p5) or hg38 human reference genome (gencode 42 version-GRCh38.p13) using STAR[60]. […]

Test [2] has as its system ECAD in 501mel cells with and without GRPR. Put plainly: Western blot of ECAD with and without GRP. Type of test: cell-based, human. As to conditions: 501mel cells expressing GRPR, 10 nM GRP. On the procedure: Whole-cell lysates were prepared and analysed as described previously. The primary antibodies used were: E-cadherin (610182, BD Transduction Laboratories, dilution 1/1,000); ERα (MA1-27107, Invitrogen, dilution 1/500); YAP (14074, Cell Signaling, dilution 1/1,000); β-actin (A5441, Sigma, dilution 1/5,000); and vinculin (4650, Cell Signaling, dilution 1/5,000). All raw data are provided in Supplementary Fig. 1.
Background: In western blotting, separated proteins are transferred to a membrane and probed.

Test [3] concerns mouse melanoma cell lines (1057, 1064, 1181, 1014). Kind of test: Cell growth (cell counting), mouse melanoma cell lines. The format is cell-based. The conditions noted are these: 48 h. On the procedure: Six-well tissue-culture plates were seeded with 3 × 10^5 melanoma cells in complete medium. After 24 h, the medium was replaced by low-serum medium (0.5% for murine melanoma cell lines and 1% for human melanoma cells) and the cells were incubated for a further 18 h before stimulation with 10 nM GRP (4011670 bachem) and/or 1 µM RC (R9653, Sigma-Aldrich) for 48 h. The plates were trypsinized just after stimulation or 48 h later and the cells were counted. For the MTT assay, 10,000 cells were seeded per well in 96-well plates. After 24 h, cells were starved overnight and then treated with 10 nM GRP and/or 1 µM RC for 48 h in low-serum medium (0.5% FBS). Next, MTT (M5655, Sigma-Aldrich) was added to the wells to a final concentration of 0.5 mg ml^−1 and the plates were incubated for 3 h. The medium was removed and formazan crystals dissolved in 200 µl DMSO. The absorbance was read at 570 nm using a LUMIstar Omega […] (BMG Labtech). All growth experiments were done using three technical replicates and three biological replicates. For the clonogenic assay, six-well tissue-culture plates were seeded with 500 cells in complete medium. After 10 days (20 days for 1181), colonies were fixed with 4% PFA for 15 min and stained with 10% crystal violet in ethanol for 20 min and counted in images using ImageJ software. Experiments were done in triplicate.

No end group written: not given here.

In the case of “GRP: GRPR's natural agonist, endogenous ligand of GRPR (4011670 bachem) (VPLPAGGGTVLTKMYPRGNHWAVGHLM; not fully specified; ends and bridges not checked; UniProt P07492 24-50, looked up)”, the “GSEA YAP activation, GRP vs. Mock: NES” value in test [1] (1014-Ct, female Ecad, Grpr-negative, FDR 0.585) is reported as 0.936; in test [1] (1014-Grpr, female Ecad, FDR <0.0001) it was 2.77; in test [1] (1064-par, female ΔEcad, FDR <0.0001), 2.34; in test [1] (1181-Ct, male Ecad, Grpr-negative, FDR 0.986), 0.527; in test [1] (1181-Grpr, male Ecad, FDR 0.003) it was 1.66. The ECAD protein level entry in test [2] is given as “lower”. Moreover, the “cell growth, GRPR-positive mouse lines” value in test [3] (1057 and 1064, 10 nM GRP and/or 1 µM RC, low serum 0.5%) was “promoted growth”. Also, the “cell growth, GRPR-negative mouse cells” value in test [3] (1181 and 1014, 10 nM GRP, low serum) is given as “had no effect”.
